# Data as given in article PMC12126490, “The HP1 box of KAP1 organizes HP1α for silencing of endogenous retroviral elements in embryonic stem cells” (Nature Communications, 2025).
# Legend:
# W174A mutant of HP1αCSD = experiment: 1H,15N HSQC NMR titration of W174A HP1αCSD with KAP1Hbox; format: binding, human; details: 15N-labeled W174A HP1αCSD, 20 mM Tris pH 6.8, 150 mM NaCl, 2 mM DTT, 298 K
# Method: (§1) Human full-length HP1α and HP1αCSD (aa 109–185 of HP1α) were cloned into a pGEX4T-1 expression vector and expressed in E. coli BL21 Rosetta (DE3) pLysS cells grown in Luria Broth or M9 minimal media supplemented with ^15NH4Cl (Sigma-Aldrich). Following induction with 0.5 mM isopropyl β-D-1-thiogalactopyranoside (IPTG) for 20 h at 16 °C, cells were harvested by centrifugation and lysed by sonication. GST-tag fusion proteins were purified on glutathione agarose 4B beads (Thermo Fisher Sci) in 50 mM Tris-HCl (pH 7.5) buffer, supplemented with 500 mM NaCl and 5 mM β-mercaptoethanol. The GST tag was cleaved with TEV (Tobacco Etch Virus) protease overnight at 4 °C. Proteins were further purified by size exclusion chromatography (SEC) and concentrated in Millipore concentrators. Mutants were generated by site-directed mutagenesis using the Stratagene QuikChange mutagenesis protocol and were purified as wild-type proteins.
# (§2) NMR data were processed and analyzed with NMRPipe[54] and NMRDraw as described. Normalized chemical shift perturbations shown in Fig. 3b were calculated using the equation:2 Δδ=ΔδH^2+ΔδN/5^2 where Δδ is the change in chemical shift in parts per million (ppm).
# I165E mutant of HP1αCSD = experiment: 1H,15N HSQC NMR titration of I165E HP1αCSD with KAP1Hbox; format: binding, human; details: 15N-labeled I165E HP1αCSD, 20 mM Tris pH 6.8, 150 mM NaCl, 2 mM DTT, 298 K
# Method: as §1, §2
# L139E/L150E HP1αCSD = experiment: 1H,15N HSQC NMR titration of L139E/L150E HP1αCSD with KAP1Hbox; format: binding, human; details: 15N-labeled L139E/L150E HP1αCSD, 20 mM Tris pH 6.8, 150 mM NaCl, 2 mM DTT, 298 K
# Method: as §1, §2
# [1] = system: 147 bp Widom 601 DNA (DNA147); experiment: EMSA; format: binding; details: for DNA binding of protein or peptide itself: 0.25 pmol/lane DNA147, 25 mM Tris-HCl pH 7.5, 150 mM NaCl, peptides without HP1α
# Method: as §1
# The protein was expressed in E. coli BL21(DE3) RIL competent cells in Luria Broth, induced with 0.5 mM IPTG and grown for 20 h at 16 °C. The cells were harvested by centrifugation and lysed by sonication. […] The protein was eluted in 50 mM Tris-HCl (pH 7.5) buffer supplemented with 500 mM NaCl, 500 mM imidazole and 5 mM DTT. The protein was further purified by size exclusion chromatography using a HiLoad16/600 Superdex 75 column (Cytiva) and buffer containing 50 mM Tris-HCl (pH 7.5), 500 mM NaCl and 5 mM DTT. The eluted protein fractions were analyzed by SDS-PAGE. The fractions were pooled, concentrated and exchanged with buffer containing […] pH 7.5, 150 mM NaCl and 2.5 mM DTT. The His-SUMO tag was cleaved overnight at 4 °C with Ulp1 enzyme and the tag was removed using Ni-NTA beads. The purified KAP1Hbox’ was concentrated in Millipore concentrators.
# The buffer containing 25 mM Tris-HCl pH 7.5, 150 mM NaCl and 2.5 mM DTT was used to make up the final reaction volume of 10 µL. The samples were incubated for 1 h on ice and then loaded on a 8% native PAGE gel and run for 2 h at 80 V in 0.5× Tris-borate-EDTA (TBE) on ice. The gels were stained with SYBR Gold (Thermo Fisher Sci) and visualized by Blue LED (UltraThin LED Illuminator-GelCompany).
# Tryptophan fluorescence data are presented as average of three independent measurements ±SD. […] EMSA experiments in Fig. 4 and Supplementary Figs. 6 and 7 were performed at least twice.
# FL HP1α = experiment: mass photometry with KAP1Hbox (Fig. 5j); set-up: species or system human; details: 2:1 molar ratio HP1α:KAP1Hbox
# Method: as §1
# (§3) Mass photometry (MP) assays shown in Fig. 5c, j, were performed on a Refeyn Two^MP mass photometer (Refeyn Ltd, Oxford, UK) to determine oligomeric states of FL and L139E/L150E HP1α. Each sample was loaded into the sample wells of the silicon cassettes assembled onto MassGlass UC coverslips (Refeyn, Ltd.). Samples for measurements were prepared by rapid in-drop dilution and measurements were performed at room temperature in buffer (50 mM Tris pH 7.5, 150 mM NaCl, 5 mM DTT). […]
# L139E/L150E FL HP1α = experiment: mass photometry with KAP1Hbox (Fig. 5j); set-up: species or system human; details: 2:1 molar ratio HP1α:KAP1Hbox
# Method: as §1, §3
# HP1αCSD’ = experiment: NMR chemical shift perturbation of 15N-labeled HP1αCSD’; format: binding, human; details: 50 μM 15N-labeled HP1αCSD’ with 1 mM unlabeled HP1αCSD’ or 900 μM unlabeled HP1αCD; 1H,15N HSQC
# Method: NMR experiments for amide chemical shift assignments were collected at 310 K on an Avance Neo Bruker 800 MHz spectrometer equipped with a TXO cryo-probe optimized for ^15N detection. The HP1αCSD’ construct (aa 112–176 of HP1α) and the CD of HP1α (aa 18–75 of HP1α, HP1αCD) were purified as described. Experiments were performed in buffer containing 20 mM HEPES (90% H2O/10% D2O), pH 7.2, 75 mM KCl, 1 mM TCEP, and 0.01% NaN3. Chemical shift assignments were performed on a 400 μM uniformly ^13C/^15N-labeled HP1αCSD’ sample using standard 2D ^1H,^15N HSQC, 3D HNCACB and 3D CBCA(CO)NH experiments[56]–[58]. Data were processed with NMRPipe[54] and analyzed in NMRFAM-SPARKY[59] (Sparky). […]
# Fig. 10, ^1H,^15N HSQC spectra were recorded on 50 μM ^15N-labeled HP1αCSD’ samples with and without 1 mM unlabeled HP1αCSD’ or with and without 900 μM unlabeled HP1αCD. The resonance perturbation analysis was performed using the […][60],[61] as follows:3 Δδcombined=∣ΔδH∣+α∣ΔδN∣ The ∆δcombined is the sum of the absolute chemical shift change. ∆δH is the change in the ^1H chemical shift. ∆δN is the change in the ^15N chemical shift. α (0.105) is the scaling factor calculated by using the ratio between the backbone ^1H chemical shift range and ^15N chemical shift range from the ^1H,^15N HSQC spectrum.
# [2] = system: endogenous KAP1 from HCT116 cells; experiment: pull-down with Strep-tagged HP1α, Western blot; format: binding; details: Strep-tagged full-length HP1α, 3 biological replicates
# Method: For all AP experiments, HCT116 cells were seeded in 10 cm plates (~4 million cells per dish) and transfected with Strep- and Flag-tagged plasmids one-day after seeding cells. Two days post-transfection, cells were collected in PBS and lysed with passive lysis buffer (PLB: 50 mM Tris-HCl pH 7.5, 150 mM NaCl, 1 mM DTT, 1.0% NP-40, 1.5 mM MgCl2, 5% v/v glycerol, and 1X complete, Mini EDTA-free, EASYpack Protease Inhibitor [Roche, Cat# 4693159001]) by resuspending cells in PLB, vortexing briefly, nutating for 15 min at 4 °C, and centrifuging the lysate (10,000 × g, 10 min, 4 °C). Strep-Tactin superflow resin (IBA Life Sciences, Cat# 2-1208-010), was equilibrated by centrifuging beads (2000 RPM, 2 min, 4 °C), removing storage buffer, and washing three times with PLB with nutation for 5 min at 4 °C. Beads were volumed back to their original volume, and 40 µL beads were used per AP and bound for 2 h. Beads were then washed with AP Wash Buffer (50 mM Tris-HCl pH 7.5, 250 mM NaCl, 1 mM DTT, 0.2% NP-40, 1.5 mM MgCl2, and 5% v/v glycerol), and eluted with Strep-tag Elution Buffer containing D-Desthiobiotin (IBA Life Sciences, Cat# 2-1000-025).
# All western blots were run on 10-12% SDS-PAGE gels and transferred on nitrocellulose membranes (Bio-Rad, Cat# 1620115) using the Bio-Rad Trans-Blot Turbo Transfer System, blocked for 1 h in 5% Milk (or BSA) with Tris-buffered saline-Tween-20 (TBST), probed with primary antibody in 5% Milk (or BSA) with TBST. Blots were exposed using either Clarity Western ECL (Bio-Rad, Cat# 1705060) or utilizing the starbright secondary channel. KAP1 and CBX5/HP1a mutants for Western blot assays were generated using QuikChange II XL Site-Directed Mutagenesis kit (Agilent, Cat# 200522) per manufacturer’s instructions. PCR amplified DNAs were transformed into E. coli BME treated XL-10 Gold provided in the kit and positive clones validated by Sanger Sequencing. […]
# Tryptophan fluorescence data are presented as average of three independent measurements ±SD. […]
# I165E HP1αCSD = experiment: NMR titration of 15N-labeled I165E HP1αCSD with unlabeled HP1αCSD; format: binding, human
# Method: as §1, §2
# HP1αCSD = molecular target: T1, HP1αCSD (Homo sapiens, UniProt P45973); experiment: 1H,15N HSQC NMR titration of 15N-labeled HP1αCSD with KAP1Hbox; format: binding; details: 0.1–0.2 mM 15N-labeled protein, 20 mM Tris pH 6.8, 150 mM NaCl, 2 mM DTT, 10% D2O, 298 K
# T1 construct: HP1αCSD (aa 109–185 of HP1α); GST (N, cleaved yes); made in house; host or cells: E. coli BL21 Rosetta (DE3) pLysS
# T1 sequence (P45973 109-185): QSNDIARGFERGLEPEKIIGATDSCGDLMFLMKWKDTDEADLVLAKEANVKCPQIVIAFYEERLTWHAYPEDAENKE
# Text: NMR data were processed and analyzed with NMRPipe[54] and NMRDraw as described[55].
compound,measurement,setting,value
CC(C)C[C@H](NC(=O)[C@H](CCCNC(=N)N)NC(=O)[C@H](CCC(=O)O)NC(=O)[C@H](CC(C)C)NC(=O)[C@H](CO)NC(=O)[C@@H](NC(=O)[C@H](CCCNC(=N)N)NC(=O)[C@@H]1CCCN1C(=O)[C@@H](NC(=O)[C@H](CCCCN)NC(=O)[C@@H](N)CCCNC(=N)N)C(C)C)C(C)C)C(=O)O [KAP1Hbox],binding by CSPs in HSQC,W174A mutant of HP1αCSD,no CSP were observed
same,binding by CSPs in HSQC,I165E mutant of HP1αCSD,disrupted
same,binding by CSPs in HSQC,L139E/L150E HP1αCSD,does not disrupt the CSD-KAP1Hbox complex formation
same,DNA binding of protein or peptide itself,"[1]; 2.5 mM DTT, 1 h on ice",did not appreciably bind DNA
same,effect of peptide on binding of HP1α to DNA147,"[1]; FL HP1α, tenfold molar excess of peptide, 25 mM Tris-HCl pH 7.5, 150 mM NaCl, 2.5 mM DTT, 1 h on ice, 8% native PAGE",augmented binding of HP1α to DNA
same,effect on oligomerization of WT FL HP1α,FL HP1α,further increased oligomerization of WT FL HP1α
same,KAP1Hbox-promoted oligomerization of L139E/L150E FL HP1α,L139E/L150E FL HP1α,markedly decreased
CD domain: CD of HP1α (aa 18–75 of HP1α),resonance perturbations in HP1αCSD’,HP1αCSD’,does not induce such changes
FL HP1α: Human full-length HP1α,DNA binding of protein or peptide itself,"[1]; 2.5 mM DTT, 1 h on ice",forms a complex with DNA147
same,pull-down of endogenous KAP1,[2],immunoprecipitated
"HP1αCSD: aa 109–185 of HP1α, chromoshadow domain",shift of DNA band by HP1αCSD in presence or absence of KAP1Hbox,"[1]; isolated HP1αCSD, with and without KAP1Hbox (1:10)",unable to shift the DNA band
same,CSPs in I165E HP1αCSD,I165E HP1αCSD,led to CSPs
same,resonance perturbations in HP1αCSD’,HP1αCSD’,resonance perturbations observed
"I165E HP1α: I165E mutant of full-length HP1α (dimerization interface), Strep-tagged",pull-down of endogenous KAP1,[2],not
V488E mutant of KAP1Hbox: V488E mutant of KAP1Hbox peptide (RKVPRESLERL),binding by CSPs in HSQC,HP1αCSD,no CSP were observed
"W174A HP1α: W174A mutant of full-length HP1α, Strep-tagged",pull-down of endogenous KAP1,[2],not
